What was measured:
[1] = tested on: circBRIP1 in HCT116 cells; assay: DHX9 circBRIP1 cellular target engagement TaqMan Multiplex assay (qPCR); assay type: cell-based; details: Homo sapiens, read-out: DHX9 Cellular Target Engagement EC50
[2] = tested on: circBRIP1 in HCT116 cells; assay: DHX9 circBRIP1 cellular target engagement SYBR Green assay (qPCR); assay type: cell-based; details: Homo sapiens, HCT-116, circBRIP1, HCT116 cells; SyBr assay (marked ^+); read-out: DHX9 Cellular Target Engagement EC50
[3] = HCT-116, 72 h, circBRIP1, HCT116 cells, 72 hours, Taqman assay (marked *)
[4] = HCT-116, circBRIP1, HCT116 cells, * Taqman assay was used

SMILES | EC50 [1, 4] | further results
Cc1cccnc1-c1ccc(C(=O)Nc2cc(Cl)cc(NS(C)(=O)=O)c2)s1 [Example 386] |  | EC50 [1, 3]: 1970 nM
Cc1cc(C(=O)Nc2cc(Cl)cc(NS(C)(=O)=O)c2)cn1-c1ncc(N2CCCC2=O)cn1 [Example 401] | 135 nM | 
Cn1cc(C(=O)Nc2cc(Cl)cc(NS(C)(=O)=O)c2)cc1-c1ncc(N2CCC3(CC2)CC3)cc1F [Example 468] | 269 nM | 
CCS(=O)(=O)Nc1cc(Cl)cc(NC(=O)c2cc(-c3ncc(F)cn3)n(C)c2)c1 [Example 542] | 307 nM | 
Cn1cc(C(=O)Nc2cc(Cl)cc(NS(C)(=O)=O)c2)cc1-c1ccc(N2CCC3(C2)CC3(F)F)cn1 (stereo not shown) [Example 495] | 142 nM | 
Cc1sc(C(=O)Nc2cc(Cl)cc(NS(C)(=O)=O)c2)cc1-c1ncc(N2CCC(C(F)(F)F)CC2)cc1F [Example 481] | 128 nM | 
Cn1cc(C(=O)Nc2cc(Cl)cc(NS(C)(=O)=O)c2)cc1-c1ccc(N2CC3(C2)CC(F)(F)C3)cn1 [Example 498] | 131 nM | 
CS(=O)(=O)Nc1cc(Cl)cc(NC(=O)c2cc(-c3ncc(N4CC(F)(F)C4)cc3F)cs2)c1 [Example 488] | 285 nM | 
Cc1sc(C(=O)Nc2cc(Cl)cc(NS(C)(=O)=O)c2)cc1-c1c(F)cc(F)c[n+]1[O-] [Example 736] |  | EC50 ([1]; HCT-116, circBRIP1, HCT116 cells, cell carries no mark, SyBr or Taqman not indicated): 372 nM
Cc1cc(F)cnc1-c1cc(C(=O)Nc2cc(Cl)cc(NS(C)(=O)=O)c2)sc1C [Example 348] |  | EC50 [1, 3]: 228 nM
Cc1cc(N2CC(F)(F)C2)cnc1-n1cc(C(=O)Nc2cc(Cl)cc(NS(C)(=O)=O)c2)cc1C [Example 419] | 121 nM | 
CCCS(=O)(=O)Nc1cc(Cl)cc(NC(=O)c2cc(-c3ncccc3C)cs2)c1 [Example 372] |  | EC50 [1, 3]: 2120 nM
Cc1cc(C(=O)Nc2cc(Cl)cc(NS(C)(=O)=O)c2)cn1-c1ncc(N2CC(F)(F)C2)cc1C(F)(F)F [Example 407] | 517 nM | 
CCS(=O)(=O)Nc1cc(Cl)cc(NC(=O)c2cc(C)n(-c3ncc(F)cc3Cl)c2)c1 [Example 446] | 966 nM | 
CC(C)Oc1cnc(-c2csc(C(=O)Nc3cc(Cl)cc(NS(C)(=O)=O)c3)c2)c(F)c1 [Example 458] | 199 nM | 
Cc1cc(C(=O)Nc2cc(Cl)cc(NS(C)(=O)=O)c2)cn1-c1ncc(N2CCOC2=O)cn1 [Example 417] | 223 nM | 
CCS(=O)(=O)Nc1cc(Cl)cc(NC(=O)c2cc(-c3ncc(F)cc3C)c(C)s2)c1 [Example 350] |  | EC50 [1, 3]: 257 nM
Cc1sc(C(=O)Nc2cc(Cl)cc(NS(C)(=O)=O)c2)cc1-c1ncc(F)cc1N1CCN(S(C)(=O)=O)CC1 [Example 506] | 725 nM | 
Cc1cccnc1-c1csc(C(=O)Nc2cc(Cl)cc(N(C)S(C)(=O)=O)c2)c1 [Example 374] |  | EC50 [1, 3]: > 10000 nM
CS(=O)(=O)Nc1cc(Cl)cc(NC(=O)c2cc(-c3ccc(N4CC(F)(F)C4)cn3)cs2)c1 [Example 487] | 654 nM | 
Cc1sc(C(=O)Nc2cc(Cl)cc(NS(C)(=O)=O)c2)cc1-c1ncc(C(F)(F)F)cc1F [Example 368] |  | EC50 [1, 3]: 310 nM
Cc1sc(C(=O)Nc2cc(Cl)cc(NS(C)(=O)=O)c2)cc1-c1ncc(F)cc1N1CCS(=O)(=O)CC1 [Example 503] | 9030 nM | 
Cc1sc(C(=O)Nc2cc(Cl)cc(NS(C)(=O)=O)c2)cc1-c1ncc(C#N)cc1F [Example 375] |  | EC50 [1, 3]: 680 nM
Cc1sc(C(=O)Nc2cc(Cl)cc(NS(C)(=O)=O)c2)cc1-c1c(F)cc(F)cc1F [Example 378] |  | EC50 [1, 3]: 361 nM
Cc1sc(C(=O)Nc2cc(Cl)cc(NS(C)(=O)=O)c2)cc1-c1ncc(N2CCC3(CC2)CC3)cc1F [Example 467] | 164 nM | 
Cn1cc(C(=O)Nc2cc(Cl)cc(NS(C)(=O)=O)c2)cc1-c1ccc(N2CC(S(C)(=O)=O)C2)cn1 [Example 519] | 191 nM | 
Cn1cc(C(=O)Nc2cc(Cl)cc(NS(C)(=O)=O)c2)cc1-c1ncc(N2CCC(C(F)(F)F)CC2)cc1F [Example 472] | 127 nM | 
CS(=O)(=O)Nc1cc(Cl)cc(NC(=O)c2cc(-c3ncc(F)cn3)c(Cl)s2)c1 [Example 450] | 266 nM | 
CS(=O)(=O)Nc1cc(Cl)cc(NC(=O)c2cnn(C3CCOCC3)c2)c1 [Example 131, N-(3-chloro-5-(methylsulfonamido)phenyl)-1-(tetrahydro-2H-pyran-4-yl)-1H-pyrazole-4-carboxamide] |  | EC50 [2]: > 10000 nM

Second part, led by results:

EC50 [1, 4] | SMILES | further results
26.6 nM | CN1CC[C@H](Oc2cnc(-c3cc(C(=O)Nc4cc(Cl)cc(NS(C)(=O)=O)c4)cn3C)c(F)c2)C1 [Example 639, N-(3-chloro-5-methanesulfonamidophenyl)-5-(3-fluoro-5-{[(3S)-1-methylpyrrolidin-3-yl]oxy}pyridin-2-yl)-1-methylpyrrole-3-carboxamide] | 
238 nM | Cn1cc(C(=O)Nc2cc(Cl)cc(NS(C)(=O)=O)c2)cc1-c1ncc(C(F)(F)F)cc1F [Example 554] | 
638 nM | CS(=O)(=O)Nc1cc(Cl)cc(NC(=O)c2cc(-c3ccc(F)cn3)n(S(C)(=O)=O)c2)c1 [Example 701] | 
> 10000 nM | Cc1sc(C(=O)Nc2cc(Cl)cc(NS(C)(=O)=O)c2)cc1-c1ncc(OC(C)(C)C(=O)O)cn1 [Example 670] | 
2910 nM | Cn1cc(C(=O)Nc2cc(F)cc(NS(C)(=O)=O)c2)cc1-c1ncc(F)cc1F [Example 558] | 
> 10000 nM | Cc1sc(C(=O)Nc2cc(Cl)cc(NS(C)(=O)=O)c2)cc1N1C(=O)N(C)C(C)(c2ccccn2)C1=O (stereo not shown) [Example 660] | 
183 nM | CCS(=O)(=O)Nc1cc(Cl)cc(NC(=O)c2cc(-c3ncc(F)cc3F)n(C)c2)c1 [Example 543] | 
171 nM | CCc1cncc(COc2cccnc2-c2cc(C(=O)Nc3cc(Cl)cc(NS(C)(=O)=O)c3)cn2C)c1 [Example 730] | 
327 nM | COc1cnc(-c2cc(C(=O)Nc3cc(Cl)cc(NS(C)(=O)=O)c3)cn2CC(F)(F)F)nc1 [Example 563] | 
871 nM | CCS(=O)(=O)Nc1cc(Cl)cc(NC(=O)c2cc(-c3ncc(C(F)(F)F)cc3C)c(C)s2)c1 [Example 700] | 
538 nM | Cn1cc(C(=O)Nc2cc(Cl)cc(NS(C)(=O)=O)c2)cc1-c1ncc(F)cc1Cl [Example 544] | 
220 nM | Cc1cc(C(=O)Nc2cc(Cl)cc(NS(C)(=O)=O)c2)cn1-c1ccc(OC2COC2)cn1 [Example 668] | 
3770 nM | CS(=O)(=O)Nc1cc(Cl)cc(NC(=O)c2cc(-c3ncc(F)cn3)n(C3CNC3)c2)c1 [Example 652] | 
442 nM | Cc1ccnc(OCc2cncc(F)c2)c1-c1cc(C(=O)Nc2cc(Cl)cc(NS(C)(=O)=O)c2)cn1C [Example 624] | 
130 nM | Cc1cc(C(=O)Nc2cc(Cl)cc(NS(C)(=O)=O)c2)cn1-c1ncc(N2CC(F)(F)C2)cc1OC1CCC1 [Example 673] | 
133 nM | Cc1sc(C(=O)Nc2cc(Cl)cc(NS(C)(=O)=O)c2)cc1-c1ncc(C2(O)CN(C)C2)cc1F [Example 681] | 
170 nM | Cn1cc(C(=O)Nc2cc(Cl)cc(NS(C)(=O)=O)c2)cc1-c1ccc(N2CCN(C(=O)C3CCC3)CC2)cn1 [Example 593] | 
140 nM | Cc1cc(C(=O)Nc2cc(Cl)cc(NS(C)(=O)=O)c2)cn1-c1ncc(OC(C)(C)C)cc1F [Example 662] | 
382 nM | Cn1cc(C(=O)Nc2cc(Cl)cc(NS(C)(=O)=O)c2)cc1-c1ncc(F)cc1/C=C/c1cncc(F)c1 [Example 729] | 

EC50 [1, 4] | SMILES | further results
224 nM | Cc1nc(COc2cc(F)cnc2-c2cc(C(=O)Nc3cc(Cl)cc(NS(C)(=O)=O)c3)cn2C)cs1 [Example 724] | 
274 nM | CCOc1cc(F)cnc1-c1cc(C(=O)Nc2cc(Cl)cc(NS(C)(=O)=O)c2)cn1C [Example 561] | 
292 nM | Cc1sc(C(=O)Nc2cc(Cl)cc(NS(C)(=O)=O)c2)cc1-c1ncc(C(C)(O)C2CN(C)C2)cc1F (stereo not shown) [Example 653] | 
128 nM | CCc1sc(C(=O)Nc2cc(Cl)cc(NS(C)(=O)=O)c2)cc1-c1ncccc1F [Example 587] | 
140 nM | Cn1cc(C(=O)Nc2cc(Cl)cc(NS(C)(=O)=O)c2)cc1-c1ccc(N2CCN(C(=O)C3CC3)CC2)cn1 [Example 594] | 
238 nM | Cn1cc(C(=O)Nc2cc(Cl)cc(NS(C)(=O)=O)c2)cc1-c1cc(N2CC(F)(F)C2)ccn1 [Example 552] | 
170 nM | Cc1sc(C(=O)Nc2cc(Cl)cc(NS(C)(=O)=O)c2)cc1-c1ncc(S(C)(=O)=O)cn1 [Example 711] | 
156 nM | Cc1cnc(-c2cc(C(=O)Nc3cc(Cl)cc(NS(C)(=O)=O)c3)cn2C)c(F)c1 [Example 580] | 
461 nM | CCc1sc(C(=O)Nc2cc(Cl)cc(NS(C)(=O)=O)c2)cc1-c1ncc(F)cc1F [Example 588] | 
55.2 nM | CN1CC[C@@H](Oc2cnc(-c3cc(C(=O)Nc4cc(Cl)cc(NS(C)(=O)=O)c4)cn3CC(F)(F)F)nc2)C1 [Example 641] | 
710 nM | Cn1cc(C(=O)Nc2cc(Cl)cc(NS(C)(=O)=O)c2)cc1-c1ccccc1/C=C/c1cncc(F)c1 [Example 727] | 
130 nM | Cn1cc(C(=O)Nc2cc(Cl)cc(NS(C)(=O)=O)c2)cc1-c1ccc(N2CCN(C(=O)C(C)(C)C)CC2)cn1 [Example 591] | 
> 10000 nM | Cc1cc(F)cc(C#N)c1-c1cc(C(=O)Nc2cc(Cl)cc(NS(C)(=O)=O)c2)cn1C [Example 659] | 
156 nM | CCS(=O)(=O)Nc1cc(Cl)cc(NC(=O)c2cc(-c3ncc(OC(C)(C)C)cn3)c(C)s2)c1 [Example 566] | 
303 nM | Cn1cc(C(=O)Nc2cc(Cl)cc(NS(C)(=O)=O)c2)cc1-c1ccc(N2CCN(C(=O)C3CCCC3)CC2)cn1 [Example 592] | 
535 nM | CS(=O)(=O)Nc1cc(Cl)cc(NC(=O)c2cc(-c3ncc(OC4CN(S(C)(=O)=O)C4)cn3)n(CC(F)(F)F)c2)c1 [Example 651] | 
> 10000 nM | Cc1sc(C(=O)Nc2cc(Cl)cc(NS(C)(=O)=O)c2)c(F)c1-c1ncc(OC(C)C)cn1 [Example 683] | 
543 nM | CS(=O)(=O)Nc1cc(Cl)cc(NC(=O)c2cc(-c3ncc(F)cn3)n(CC(F)(F)F)c2)c1 [Example 562] | 
> 10000 nM | Cc1sc(C(=O)Nc2cc(Cl)cc(NS(C)(=O)=O)c2)cc1-c1ncc(OC(C)C(=O)O)cn1 (stereo not shown) [Example 671] | 

Reference: patent US12162867B2, “Inhibitors of RNA helicase DHX9 and uses thereof” (ACCENT THERAPEUTICS, INC., priority 2022, dated 2024)
